Laboratory results reported in patent publication US11667634B2, “Inhibitors of RAF kinases” (Kinnate Biopharma Inc., priority 2019, dated 2023).

Molecular target: human RAF1 (Homo sapiens (Human), UniProt P04049)
Assay: Protein kinase assay (radiometric 33P-ATP, MEK1 (K97R) substrate)
Type: biochemical
Conditions: substrate human MEK1 (K97R) 3 micromolar, ATP 10 micromolar, 3-fold dilution from 10 micromolar, read-out: RAF-1 IC50
Experimental: Protein kinase assay: Assay platform was used to measure kinase/inhibitor interactions as described previously (Anastassiadis et al., 2011). In brief, for each reaction, kinase and substrate were mixed in a buffer containing 20 mM HEPES (pH 7.5), 10 mM MgCl2, 1 mM EGTA, 0.02% Brij35, 0.02 mg/mL BSA, 0.1 mM Na3VO4, 2 mM DTT, and 1% DMSO. All compounds were solubilized in DMSO. Compounds were then added to each reaction mixture via acoustic dispense using an ECHO 550 nanoliter dispenser. For human RAF1 testing, human MEK1 (K97R) was used as a substrate at a concentration of 3 micromolar, with a final ATP concentration of 10 micromolar. For human BRAF testing, human MEK1 (K97R) was used as a substrate at 1 micromolar concentration, with a final ATP concentration of 25 micromolar. […] After a 20-min incubation, ATP (Sigma-Aldrich, St. Louis, Mo. 63178) and [g33P] ATP (specific activity 10 microCi/microliter) purchased at PerkinElmer (Boston, Mass., 02118 Cat #BLU 003H250UC) were added at a final total concentration of 10 mM. Reactions were carried out at room temperature for 2 hr and spotted onto P81 ion exchange cellulose chromatography paper (Reaction Biology). Filter paper was washed in 0.75% phosphoric acid to remove unincorporated ATP. The percent remaining kinase activity relative to a vehicle-containing (DMSO) kinase reaction was calculated for each kinase/inhibitor pair. IC50 values were calculated using Prism 5 (GraphPad).

human RAF1, sequence (P04049 whole entry): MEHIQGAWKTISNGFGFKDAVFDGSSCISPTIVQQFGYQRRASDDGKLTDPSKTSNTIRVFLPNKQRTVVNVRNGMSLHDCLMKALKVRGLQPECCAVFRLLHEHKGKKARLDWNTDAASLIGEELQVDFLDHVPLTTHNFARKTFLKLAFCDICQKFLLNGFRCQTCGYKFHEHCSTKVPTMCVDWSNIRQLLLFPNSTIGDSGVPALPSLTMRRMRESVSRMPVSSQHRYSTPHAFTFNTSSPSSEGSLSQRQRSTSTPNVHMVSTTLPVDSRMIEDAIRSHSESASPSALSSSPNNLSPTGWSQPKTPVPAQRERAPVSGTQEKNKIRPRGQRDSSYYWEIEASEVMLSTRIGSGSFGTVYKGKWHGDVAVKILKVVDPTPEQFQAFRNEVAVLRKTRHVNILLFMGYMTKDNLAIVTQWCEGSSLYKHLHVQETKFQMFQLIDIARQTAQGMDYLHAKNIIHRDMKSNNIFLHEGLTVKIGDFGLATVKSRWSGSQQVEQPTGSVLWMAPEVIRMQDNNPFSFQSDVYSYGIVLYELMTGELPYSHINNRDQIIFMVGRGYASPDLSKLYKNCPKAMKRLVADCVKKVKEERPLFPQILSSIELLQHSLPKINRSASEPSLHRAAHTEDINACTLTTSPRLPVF

IC50	SMILES
≤ 10 nM	CNc1ncc2cc(-c3cc(NC(=O)N4CCOC(C(F)(F)F)C4)ccc3C)cnc2n1 (stereo in doubt) [Example 58, (2S)-N-[4-methyl-3-2-(methylamino)pyrido[2,3-d]pyrimidin-6-yl]phenyl]-2-(trifluoromethyl)morpholine-4-carboxamide]
≤ 10 nM	CNc1ncc2cc(-c3cc(NC(=O)N4CC[C@H](OC(F)F)C4)c(F)cc3C)cnc2n1 [Example 28, (S)-3-(difluoromethoxy)-N-(2-fluoro-4-methyl-5-(2-(methylamino)pyrido[2,3-d]pyrimidin-6-yl)phenyl)pyrrolidine-1-carboxamide]
≤ 10 nM	C#Cc1nc2nc(NC)ncc2cc1-c1cc(NC(=O)c2ccnc(C(F)(F)F)c2)ccc1C [Example 67, N-[3-[7-ethynyl-2-(methylamino)pyrido[2,3-d]pyrimidin-6-yl]-4-methylphenyl]-2-(trifluoromethyl)pyridine-4-carboxamide]
